Active and inactive are the calls of the source. How the calls were made is not given here.
Assay: Luciferase light induction in v cholerae bh1651, agonist dose response, confirmatory (AID 624254)
Details: V. cholerae BH1651 luxOD47E, luciferase light induction, 6 h; at 50 µM (top of the series)

| SMILES | activation (light increase) |
| --- | --- |
| COc1ccc(CNC(=O)c2ccc(Cl)c(S(=O)(=O)N3CCOCC3)c2)cc1OC | inactive |
| CCCOC(=O)c1ccc(NC(=O)CCC(=O)OCC)cc1 | inactive |
| Cn1c(CNc2cccc(Cl)c2)nnc1SCC(=O)OC1CCCCC1 | inactive |
| Cc1cc(C(=O)OCC(=O)Nc2c(Cl)cccc2C(F)(F)F)c(C)o1 | inactive |
| Cc1cccc(OC(C)C(=O)NC2CCS(=O)(=O)C2)c1C (centres undefined) | inactive |
| COc1ccc(-c2ccc(-c3nnc(Cc4ccc(OC)c(OC)c4)o3)cc2)cc1 | inactive |
| CCCn1nnnc1NCc1ccc(C(C)C)cc1 | inactive |
| O=C(NCCS(=O)(=O)N1CCN(c2ccccc2)CC1)c1ccco1 | inactive |
| Cc1ccc(C)c(OCCC(=O)OCC(=O)NC2CC2)c1 | inactive |
| COC(=O)Cc1c(C)c2ccc(OC(=O)c3ccccc3)cc2oc1=O | inactive |
| O=S(=O)(Nc1ccccn1)c1ccc(Oc2ccccc2)cc1 | inactive |
| NNC(=O)c1nnn(-c2nonc2N)c1CN1CCCC1 | inactive |
| Cn1cnc(S(=O)(=O)Nc2ccc(Oc3ccccc3)cc2)c1 | inactive |
| CCc1ccc(OCCNC(=O)c2ccco2)cc1 | inactive |
| O=C(COC(=O)C1CCC1)Nc1ccc(Oc2ccccc2)cc1 | inactive |
| OCCn1c(SC2CCCCC2)nc2ccccc21 | inactive |
| Cc1cc(OC(F)F)ccc1NC(=S)NCCc1ccccc1 | inactive |
| COc1ccccc1CCN1CCCC(CN(C)C(=O)c2ccco2)C1 (centres undefined) | inactive |
| C[C@H](CO)N1C[C@H](C)[C@H](CN(C)S(=O)(=O)c2ccccc2)Oc2c(NC(=O)Nc3ccc4c(c3)OCO4)cccc2C1=O | inactive |
| O=C(NCCC(=O)N1CCN(c2ccc(F)cc2)CC1)c1ccco1 | inactive |
| c1ccc(-c2ccc(CN3Cc4ccccc4-n4nncc4C3)cc2)cc1 | inactive |
| CCCCN1C(=O)C(O)(CC(=O)c2ccccn2)c2ccccc21 (centres undefined) | inactive |
| Cc1nn(-c2ccccc2)c(C)c1NC(=O)COC(=O)c1cccc(OC(F)F)c1 | inactive |
| CCCCNC(=O)c1ccccc1NC(=O)CCSc1ccccc1 | inactive |
| Cc1noc(C)c1NC(=O)Nc1cccc2c1O[C@H](CN(C)S(=O)(=O)c1cccs1)[C@@H](C)CN([C@H](C)CO)C2=O | inactive |

| SMILES | activation (light increase) |
| --- | --- |
| CCOc1ccc(CNc2nnnn2C)cc1 | inactive |
| O=c1c2ccccc2nnn1CSc1nnc2ccccn12 | inactive |
| Cc1csc(NC(=O)Cc2nn(C)c(=O)c3ccccc23)n1 | inactive |
| Cc1cc(C)cc(OC(=O)c2cccnc2)c1 | inactive |
| COc1ccc2c(c1OC)C(=O)N(c1nccs1)C2 | inactive |
| CCOc1ccc2cc(C#N)c(SCC(=O)N3CCC(C)CC3)nc2c1 | inactive |
| CCOc1ccc(/C(O)=C2/C(=O)C(=O)N(CCOCCO)C2c2ccccn2)cc1 (centres undefined) | inactive |
| CCOc1ccc(S(=O)(=O)Nc2ccc(C(=O)NCC(c3ccco3)N3CCCCC3)cc2)cc1 (centres undefined) | inactive |
| O=C(c1cn(-c2ccccc2)nc1-c1cccs1)N1CCOCC1 | inactive |
| COc1cccc(CN(C)C(=O)CSC(C)C(=O)Nc2cc(C)on2)c1OC (centres undefined) | inactive |
| COCCNC(=O)c1cnn2c1NC(c1ccco1)CC2C(F)(F)F (centres undefined) | inactive |
| Cc1ccc(C(=O)N(C)CC(=O)Nc2ccc(N3CCOCC3)cc2)s1 | inactive |
| COc1ccc(NC(=O)COc2cccc3c2CCNC3=O)cc1 | inactive |
| C[C@H](CO)N1C[C@H](C)[C@@H](CN(C)S(=O)(=O)c2ccc(F)cc2)Oc2c(NC(=O)Nc3ccc4c(c3)OCO4)cccc2C1=O | inactive |
| O=C(c1cc(-c2cccs2)nn1-c1ccccc1)N1CCN(S(=O)(=O)c2ccccc2)CC1 | inactive |
| CCCCn1nnnc1NCc1ccc(N(CC)CC)cc1 | inactive |
| COC(=O)c1[nH]c2ccc(C)cc2c1NC(=O)Nc1ccc(OC)cc1 | inactive |
| O=C(COC(=O)/C=C/c1cccc(F)c1)NC1CCCC1 | inactive |
| O=C(Cc1ccc(-c2ccccc2)cc1)NC1CCCC1 | inactive |
| Cc1noc(C)c1NC(=O)Nc1cccc2c1O[C@H](CN(C)S(=O)(=O)c1cccs1)[C@H](C)CN([C@H](C)CO)C2=O | inactive |
| C=CCn1c(=O)c(C(=O)NC(C)c2ccccc2)c(O)c2ccccc21 (centres undefined) | inactive |
| C[C@@H]1CN([C@@H](C)CO)C(=O)c2cccc(NC(=O)C3CC3)c2O[C@H]1CN(C)S(=O)(=O)c1cccs1 | inactive |
| Cc1noc(C)c1COc1ccc(C(=O)NCC(c2c(F)cccc2Cl)N(C)C)cc1 (centres undefined) | inactive |
| COc1ccc(CCNC(=O)C(=O)NCC2CCCN2S(=O)(=O)c2ccc(OC)cc2)cc1 (centres undefined) | inactive |
| COC(=O)c1ccc(C2C(C(C)=O)=C(O)C(=O)N2CCO)cc1 (centres undefined) | inactive |

| SMILES | activation (light increase) |
| --- | --- |
| CC1CCCN(C(=O)c2ccc3c(=O)n(Cc4ccc5c(c4)OCO5)c(=S)[nH]c3c2)C1 (centres undefined) | inactive |
| CCCn1nnnc1SCC(=O)c1ccc2c(c1)OCCO2 | inactive |
| CCCCc1cc2c(cc1NC(=O)CN1CCCCC1)OCCO2 | inactive |
| CCCOc1ccc(NS(=O)(=O)c2cn(C)cn2)cc1 | inactive |
| COc1ccccc1NC(=O)COC(=O)c1cc2c(s1)CCC2 | inactive |
| Cc1ccc(SCc2nc(-c3cccnc3)no2)cc1 | inactive |
| CCOc1ccc2nc(SCC(=O)NC(=O)NCc3ccco3)[nH]c2c1 | inactive |
| CCOC(=O)Cn1nc(C)n(-c2ccc(C(C)C)cc2)c1=O | inactive |
| O=C(CC1NC(=O)NC1=O)Nc1ccc(Cl)cc1 (centres undefined) | inactive |
| Cc1ccccc1OCC(=O)OCC(=O)N1CCCc2ccccc21 | inactive |
| COc1ccc(C(=O)O)cc1S(=O)(=O)Nc1cccc(C(F)(F)F)c1 | inactive |
| Cc1ccc(C(=O)OCC(=O)NC2CCCC2)cc1C | inactive |
| O=C(Nc1nnc(C2CC2)s1)c1cccc(S(=O)(=O)N2CCc3ccccc32)c1 | inactive |
| C[C@@H]1CN([C@H](C)CO)C(=O)c2cccc(NC(=O)C3CC3)c2O[C@@H]1CN(C)S(=O)(=O)c1cccs1 | inactive |
| Cc1ccc(OCC(=O)NC2CCS(=O)(=O)C2)c([N+](=O)[O-])n1 (centres undefined) | inactive |
| CCS(=O)(=O)N1CCN(C(=O)CCC2CCCC2)CC1 | inactive |
| CN(C)CC(C)(C)CNC(=O)c1cc(=O)c2ccccc2o1 | inactive |
| CCOC(=O)CNc1c(-c2ccc(Cl)cc2)nc2cnccn12 | inactive |
| CCCn1nnnc1NCc1ccc(N(C)C)cc1 | inactive |
| COC(=O)c1ccc(-c2nc3cc(Cl)c(N)cc3s2)cc1 | inactive |
| O=C(COC(=O)c1ccc(Cl)nc1)Nc1ccc2ccccc2c1 | inactive |
| COc1ccc(N2CCN(CC(=O)Nc3c(C)cc(C)cc3C)CC2)cc1 | inactive |
| CCOC(=O)N1CCN(C(=S)NCCOC)CC1 | inactive |
| CC(C)c1ccc(OCC(=O)NC2CCCC2)cc1 | inactive |
| O=C(O)c1cn[nH]c1-n1cnnn1 | inactive |

| SMILES | activation (light increase) |
| --- | --- |
| COc1ccccc1NC(=O)CN1CCN(c2ccccc2F)CC1 | inactive |
| CN(CC(=O)Nc1ccc(OC(F)(F)F)cc1)C(=O)C1CCC1 | inactive |
| CCCCn1c(=O)[nH]c(=O)c2c1nc(COc1ccc(C#N)cc1)n2CCC | inactive |
| Cc1cccc(N2CCN(C(=O)Cn3cccc3C(=O)c3ccccc3)CC2)c1C | inactive |
| Cc1nnc(NC(=O)c2cccc(S(=O)(=O)N3CCc4ccccc43)c2)s1 | inactive |
| CCOC(=O)c1cnc(SCC(=O)OCC(=O)NC2CCS(=O)(=O)C2)nc1N (centres undefined) | inactive |
| CCc1cccc(C)c1N(C(=O)Cn1c(CO)nc2ccccc21)C(C)COC (centres undefined) | inactive |
| Cc1ccc(S(=O)(=O)NCCC(=O)O)cc1 | inactive |
| C=CCNC(=O)CCCOc1ccc(C)cc1 | inactive |
| COc1ccccc1NC(=O)COC(=O)c1ccc2c(c1)OCCO2 | inactive |
| O=[N+]([O-])c1ccc(S(=O)(=O)NCC(c2cccnc2)N2CCc3ccccc32)cc1 (centres undefined) | inactive |
| CCCCOC(=O)n1c(=O)oc2ccccc21 | inactive |
| O=C(NCc1nc(-c2ccccc2)no1)c1cccs1 | inactive |
| COc1ccc(C(CNC(=O)c2ccc(-c3cccc(C(F)(F)F)c3)o2)N2CCOCC2)cc1 (centres undefined) | inactive |
| Clc1ncnc2scc(-c3ccccc3)c12 | inactive |
| CC(OC(=O)Cn1cnc2c1c(=O)n(C)c(=O)n2C)C(=O)c1ccccc1 (centres undefined) | inactive |
| COc1ccc(CC(=O)N2CCC(Nc3nc4ccccc4n3Cc3ccc(F)cc3)CC2)cc1 | inactive |
| CCCNC(=O)Cc1ccsc1 | inactive |
| O=C(CCNC(=O)c1ccc(Cl)cc1)NCC(c1ccco1)N1CCCCC1 (centres undefined) | inactive |
| CC(=O)Nc1ccc(S(=O)(=O)NCCC(=O)OCC(=O)c2cc(C)ccc2C)cc1 | inactive |
| CCOc1ccc(C(=O)OCC(=O)N2CCCC2)cc1 | inactive |
| CN(CC(=O)Nc1ccc(F)c(F)c1F)C(=O)C1CCC1 | inactive |
| COc1ccccc1N1CCN(CCCOc2ccc(F)cc2)CC1 | inactive |
| CCCS(=O)(=O)N1CCCC(C(=O)NCCCN(C)Cc2ccccc2)C1 (centres undefined) | inactive |

Reference: PubChem BioAssay AID624254 (Broad Institute, 2012)
